Laboratory results published in publication PMC3994577 (BMC Infectious Diseases, 2014).
Where two headings read alike, the source gives them in different places.

Legend:
[1] = cited from earlier work
[2] = single oral dose, co-administration of a high fat meal; cited from earlier work
[3] = Early RBV plasma exposure (AUC0-4h) after a 600 mg first dose of RBV; type: in vivo, human (patients with chronic hepatitis C); details: for AUC(0-t): human, plasma, oral, 600 mg
Experimental: Patients were divided into two groups according to their HIV status. […] All patients gave their informed consent before they entered the study.
The plasma AUC was determined for each patient before the antiviral treatment or at the first day.
Results of AUC and normalized AUC were analyzed according to the two groups defined by the HIV status.
All quantitative variables were expressed as median and range. Comparisons of data were made using the non-parametric Mann–Whitney test. Statistical analysis was performed using the Statistica® software package (StatSoft Inc). […] A p value below 0.05 was considered as statistically significant.

## NC(=O)c1ncn([C@@H]2O[C@H](CO)[C@@H](O)[C@H]2O)n1 [RBV, ribavirin]
[1]; historical study, monoinfected HCV genotype 1 patients
  patients with AUC0-4h below the 1755 μg.h/L threshold: 58%
[1]; single dose of 600 mg, HCV monoinfected patients
  threshold for RBV plasma AUC from 0 to 4 h post-dose discriminating SVR from non-response: 1755 µg·h/L
[2]
  AUCtf (from time zero to the time of the final quantifiable sample): increased
  Cmax: increased
[3]; HCV monoinfected patients (n = 63), threshold 1755 μg.h/L
  Patients with AUC0-4h <1755: 32%
[3]; HIV-HCV coinfected patients
  patients with AUC0-4h above the threshold of 1755 μg.h/L: 39%
[3]; HCV monoinfected patients (n = 63), single 600 mg RBV dose, median (range), read-out: AUC0-4h
  AUC(0-t): 2030 ng·h/mL
[3]; HCV monoinfected, HCV treatment naive patients, read-out: median AUC0-4h
  AUC(0-t): 2430 ng·h/mL
[3]; HCV monoinfected, non-responders, read-out: median AUC0-4h
  AUC(0-t): 1870 ng·h/mL
[3]; HCV monoinfected, relapsers, read-out: median AUC0-4h
  AUC(0-t): 2020 ng·h/mL
[3]; HIV-HCV coinfected patients (n = 23), single 600 mg RBV dose, median (range), read-out: AUC0-4h
  AUC(0-t): 1470 ng·h/mL
[3]; HIV-HCV coinfected patients with CD4 < 500/mm^3, median (range), read-out: AUC0-4h
  AUC(0-t): 1270 ng·h/mL
[3]; HIV-HCV coinfected patients with CD4 ≥ 500/mm^3, median (range), read-out: AUC0-4h
  AUC(0-t): 1840 ng·h/mL
[3]; RBV-AUC 0-4h (median), HCV monoinfected patients, abstract
  AUC(0-t): 2030 ng·h/mL
[3]; RBV-AUC 0-4h (median), HIV-HCV coinfected patients, abstract
  AUC(0-t): 1470 ng·h/mL
[3]; all three HIV-HCV coinfected patients with detectable HIV RNA, read-out: AUC0-4h
  AUC(0-t): < 1760 ng·h/mL
[3]; male HCV monoinfected patients
  Men with AUC0-4h <1755: 43%
[3]; male HIV-HCV coinfected patients
  Men with AUC0-4h <1755: 65%
[3]; male, male HCV monoinfected patients, single 600 mg dose, median (range), read-out: Men AUC0-4h
  AUC(0-t): 1880 ng·h/mL
[3]; male, male HIV-HCV coinfected patients, single 600 mg dose, median (range), read-out: Men AUC0-4h
  AUC(0-t): 1410 ng·h/mL
